Square brackets hold non-standard residues; d marks the D form. Side chains are listed from the residue outwards. Peptide text beside a SMILES is read from it. PMO = not defined here; AEEA = NCCOCCOCC(=O)O; Ahx = NCCCCCC(=O)O; Mpa = O=C(O)CCS
Assays:
[1] = Serum stability in 50% human serum at 37 °C (RP-HPLC, one-phase decay half-life); details: for half-life at 500 µM: human, serum (50% human serum)
Procedure: Serum stability analysis was conducted for each peptide (7×50 nmol) shown in Table 3 in 50% human serum (100 μL) at 37° C. At the end of each time point (0, 10, 30, 60, 120, 240, and 480 min), 1 M guanidine hydrochloride solution (200 μL) and ice-cold acetonitrile (600 μL) were added, and the serum-peptide solution was centrifuged at 14000 g for 10 min. The supernatant was lyophilised and redissolved in water (200 μL). All samples were analysed by RP-HPLC in the presence of phenol (50 nmol) as an internal standard, using water and acetonitrile containing 0.1% TFA, with a gradient of 10-80% acetonitrile over 30 min, and a flow rate of 1.5 mL/min. The percentage of peptide remaining was measured based on the area under curve. The percentage of peptide remaining versus time data was fitted to a non-linear one-phase exponential decay model in GraphPad Prism 9.2.0 to determine the half-life for each peptide.

SMN2 = SMN2 splice-switching for exon 7 inclusion by RT-qPCR in SMA Type I patient-derived fibroblasts (Example 2); assay type: cell-based, human; details: for exon-7 inclusion activity, change in words: 0.5 μM and 1 μM, versus comparator; for level of exon-7 inclusion activity (full length SMN2/HPRT1, normalised to untreated control set to 1): treated 4 hrs, then 20 hrs growth medium, mean±SEM
From the text: FIG. 3. (A) SMN2 pre-mRNA exon-7 skipping and production of 80-90% SMN2Δ7 mRNA transcripts. Peptide-PMO binding to Intron-splicing silencer (ISS-N1) and restoration of SMN2 splicing and production of full-length SMN2 mRNA transcripts. The positions of forward and reverse primers highlighted on full-length mRNA. (B)-(C) Effect of administration of peptides linked to PMO for SMN2 exon 7 inclusion, measured as change in the level of full length SMN2/HPRT1 in SMA patient-derived fibroblasts, each at two concentrations, 0.5 μM and 1 μM (or 1 μM and 5 μM in the case of PMO alone). UT, untreated. (B) For PMO constructs, from left to right: PMO; ApoE(141-150)-PMO; ApoE(133-150)-PMO. (C) For PMO constructs, from left to right: PMO; HA2-PMO; GALA-PMO; NLS-PMO; ApoE(141-150)-PMO; HA2-ApoE(141-150)-PMO; GALA-ApoE(141-150)-PMO; NLS-ApoE(141-150)-PMO; H4-ApoE(141-150)-PMO; A4-ApoE(141-150)-PMO. *P<0.05,**P<0.001, ***P<0.0001 cf. Untreated (control) and PMO (1 and 5 μM); #P<0.001 cf. GALA-/NLS-/H4-ApoE(141-150)-PMO (1 μM), ^<0.001 cf. ApoE(133-150)-PMO (0.5 and 1 μM), ^OP<0.001 cf. ApoE(141-150)-PMO (1 μM), ^&P<0.05 cf.
The inventors then evaluated cellular uptake and activity of these peptide-PMO conjugates in SMA Type I patient-derived fibroblasts with two copies of SMN2. Efficiency of uptake was assessed by RT-qPCR using SMN2 splice-switching for exon 7 inclusion (see FIG. 3A).
SMA Type I patient-derived fibroblasts (SMN2^+/+, GM03813, Coriell Cell Repositories) were maintained in Dulbecco's Modified Eagle's Medium (DMEM), supplemented with 10% foetal bovine serum (FBS), 1% Penicillin/Streptomycin and 1% L-glutamine (L-glu) at 37° C. Cells were plated in 6-well plates at a density of 3×10^5/well in 6 well plates one day prior to treatment with PMO and peptide-PMO conjugates. Cells used were from passage 8-22. PMO and the peptide-PMO conjugates were dissolved in nuclease-free water and diluted to appropriate concentrations in Opti-MEM reduced serum medium. Cells were treated for 4 hrs at 37° C. The transfection medium was then removed and replaced with growth medium in which the cells were incubated for 20 hrs.
Cells were washed with PBS and total cellular RNA was extracted using Trizol (TRI Reagent®, Sigma) according to the manufacturer's instructions (Life Technologies). 400 ng purified RNA was reverse transcribed into cDNA using BioRad iScript Reverse Transcription Supermix kit according to the manufacturer's instructions. The reverse transcription was performed using the Veriti Thermal Cycler (ThermoFisher Scientific) with the thermal cycling conditions: 25° C. for 5 min, 46° C. for 20 min, 95° C. for 1 min followed by a 4° C. holding period.
Quantitative PCR (20 ng cDNA/well) was carried out in a 96-well plate in triplicate using SsoAdvanced Universal SYBR Green Supermix on a Biorad CFX96 Touch™ Real-Time PCR detection system. The amplification was carried out using full-length SMN2-specific primers: Ex-6 Forward 5′-[…]-3′ (SEQ ID NO:10) and Ex7-8 reverse 5′[…]-3′ (SEQ ID NO:11). Human HPRT1 was used as the internal reference gene with forward primer sequence 5′-[…]-3′ (SEQ ID NO:12) and reverse primer sequence 5′-[…]-3′ (SEQ ID NO:13). The ΔΔCt method was used to correct the Ct values against the HPRT1 Ct values. The values obtained were normalised to the untreated control values which were set to 1. Statistical analysis was carried out using one-way ANOVA with post-hoc Bonferroni for multiple groups comparison (GraphPad Prism V.8, 2018). All data are expressed as mean±SEM from at least three independent experiments with p<0.05 considered significant.

Compound	half-life at 500 µM [1] [min]	exon-7 inclusion activity, change in words (SMN2)	other results
CC[C@H](C)[C@H](NC(=O)[C@H](C)NC(=O)[C@H](Cc1c[nH]cn1)NC(=O)[C@H](Cc1ccccc1)NC(=O)[C@H](CC(C)C)NC(=O)CNC(C)=O)C(=O)N[C@@H](C)C(=O)N[C@@H](Cc1c[nH]cn1)C(=O)N[C@@H](Cc1ccccc1)C(=O)N[C@H](C(=O)N[C@@H](Cc1c[nH]cn1)C(=O)NCC(=O)NCC(=O)N[C@@H](Cc1c[nH]c2ccccc12)C(=O)N[C@@H](Cc1c[nH]cn1)C(=O)NCCOCCOCC(=O)N[C@@H](CCCCNC(=O)COCCOCCNC(=O)CCS)C(=O)NCCOCCOCC(=O)N[C@@H](CC(C)C)C(=O)N[C@@H](CCCNC(=N)N)C(=O)N[C@H](C(=O)N[C@@H](CCCNC(=N)N)C(=O)N[C@@H](CC(C)C)C(=O)N[C@@H](C)C(=O)N[C@@H](CO)C(=O)N[C@@H](Cc1c[nH]cn1)C(=O)N[C@@H](CC(C)C)C(=O)N[C@@H](CCCNC(=N)N)C(=O)N[C@@H](CCCCN)C(=O)N[C@@H](CC(C)C)C(=O)N[C@@H](CCCNC(=N)N)C(=O)N[C@@H](CCCCN)C(=O)N[C@@H](CCCNC(=N)N)C(=O)N[C@@H](CC(C)C)C(=O)N[C@@H](CC(C)C)C(=O)N[C@@H](CCCNC(=N)N)C(=O)O)C(C)C)[C@@H](C)CC [Br-HA2-(TPA)-ApoE(133-150), Ac-GLFHAIAHFIHGGWH-mPEG-K(mPEG-TPA)-mPEG-LRVRLASHLRKLRKRLLR] (Ac-GLFHAIAHFIHGGWH[AEEA]K([AEEA-Mpa])[AEEA]LRVRLASHLRKLRKRLLR-OH)	60	–	–
CC[C@H](C)[C@H](NC(=O)[C@H](C)NC(=O)[C@H](Cc1c[nH]cn1)NC(=O)[C@H](Cc1ccccc1)NC(=O)[C@H](CC(C)C)NC(=O)CNC(C)=O)C(=O)N[C@@H](C)C(=O)N[C@@H](Cc1c[nH]cn1)C(=O)N[C@@H](Cc1ccccc1)C(=O)N[C@H](C(=O)N[C@@H](Cc1c[nH]cn1)C(=O)NCC(=O)NCC(=O)N[C@@H](Cc1c[nH]c2ccccc12)C(=O)N[C@@H](Cc1c[nH]cn1)C(=O)NCCOCCOCC(=O)N[C@@H](CCCCNC(=O)COCCOCCNC(=O)CCS)C(=O)NCCOCCOCC(=O)N[C@@H](CC(C)C)C(=O)N[C@@H](CCCNC(=N)N)C(=O)N[C@@H](CCCCN)C(=O)N[C@@H](CC(C)C)C(=O)N[C@@H](CCCNC(=N)N)C(=O)N[C@@H](CCCCN)C(=O)N[C@@H](CCCNC(=N)N)C(=O)N[C@@H](CC(C)C)C(=O)N[C@@H](CC(C)C)C(=O)N[C@@H](CCCNC(=N)N)C(=O)O)[C@@H](C)CC [Br-HA2-(TPA)-ApoE(141-150), Ac-GLFHAIAHFIHGGWH-mPEG-K(mPEG-TPA)-mPEG-LRKLRKRLLR] (Ac-GLFHAIAHFIHGGWH[AEEA]K([AEEA-Mpa])[AEEA]LRKLRKRLLR-OH)	36	–	–
CC[C@@H](C)[C@@H](NC(=O)[C@@H](C)NC(=O)[C@@H](Cc1c[nH]cn1)NC(=O)[C@@H](Cc1ccccc1)NC(=O)[C@H](NC(=O)[C@@H](Cc1c[nH]cn1)NC(=O)CNC(=O)CNC(=O)[C@@H](Cc1c[nH]c2ccccc12)NC(=O)[C@@H](Cc1c[nH]cn1)NC(C)=O)[C@H](C)CC)C(=O)N[C@H](C)C(=O)N[C@H](Cc1c[nH]cn1)C(=O)N[C@H](Cc1ccccc1)C(=O)N[C@H](CC(C)C)C(=O)NCC(=O)NCCOCCOCC(=O)N[C@@H](CCCCNC(=O)COCCOCCNC(=O)CCS)C(=O)NCCOCCOCC(=O)N[C@H](CCCNC(=N)N)C(=O)N[C@H](CC(C)C)C(=O)N[C@H](CC(C)C)C(=O)N[C@H](CCCNC(=N)N)C(=O)N[C@H](CCCCN)C(=O)N[C@H](CCCNC(=N)N)C(=O)N[C@H](CC(C)C)C(=O)N[C@H](CCCCN)C(=O)N[C@H](CCCNC(=N)N)C(=O)N[C@H](CC(C)C)C(=O)N[C@H](Cc1c[nH]cn1)C(=O)N[C@H](CO)C(=O)N[C@H](C)C(=O)N[C@H](CC(C)C)C(=O)N[C@H](CCCNC(=N)N)C(=O)N[C@@H](C(=O)N[C@H](CCCNC(=N)N)C(=O)N[C@H](CC(C)C)C(=O)O)C(C)C [RI Br-HA2-(TPA)-ApoE(133-150), Ac-hwgghifhaiahflg-mPEG-K(mPEG-TPA)-mPEG-rllrkrlkrlhsalrvrl] (Ac-[dH][dW]GG[dH][dI][dF][dH][dA][dI][dA][dH][dF][dL]G[AEEA]K([AEEA-Mpa])[AEEA][dR][dL][dL][dR][dK][dR][dL][dK][dR][dL][dH][dS][dA][dL][dR][dV][dR][dL]-OH)	96	–	proteolytic stability compared to the parent L-peptides ([1]; 50% human serum, 37° C.): significantly higher proteolytic stability
CC[C@@H](C)[C@@H](NC(=O)[C@@H](C)NC(=O)[C@@H](Cc1c[nH]cn1)NC(=O)[C@@H](Cc1ccccc1)NC(=O)[C@H](NC(=O)[C@@H](Cc1c[nH]cn1)NC(=O)CNC(=O)CNC(=O)[C@@H](Cc1c[nH]c2ccccc12)NC(=O)[C@@H](Cc1c[nH]cn1)NC(C)=O)[C@H](C)CC)C(=O)N[C@H](C)C(=O)N[C@H](Cc1c[nH]cn1)C(=O)N[C@H](Cc1ccccc1)C(=O)N[C@H](CC(C)C)C(=O)NCC(=O)NCCOCCOCC(=O)N[C@@H](CCCCNC(=O)COCCOCCNC(=O)CCS)C(=O)NCCOCCOCC(=O)N[C@H](CCCNC(=N)N)C(=O)N[C@H](CC(C)C)C(=O)N[C@H](CC(C)C)C(=O)N[C@H](CCCNC(=N)N)C(=O)N[C@H](CCCCN)C(=O)N[C@H](CCCNC(=N)N)C(=O)N[C@H](CC(C)C)C(=O)N[C@H](CCCCN)C(=O)N[C@H](CCCNC(=N)N)C(=O)N[C@H](CC(C)C)C(=O)O [RI Br-HA2-(TPA)-ApoE(141-150), Ac-hwgghifhaiahflg-mPEG-K(mPEG-TPA)-mPEG-rllrkrlkrl] (Ac-[dH][dW]GG[dH][dI][dF][dH][dA][dI][dA][dH][dF][dL]G[AEEA]K([AEEA-Mpa])[AEEA][dR][dL][dL][dR][dK][dR][dL][dK][dR][dL]-OH)	18	–	–
Ac-AAAA-X-LRKLRKRLLR-X-C-PMO [A4-ApoE(141-150)-PMO]	–	significant decrease	–
Ac-HHHH-X-LRKLRKRLLR-X-C-PMO [H4-ApoE(141-150)-PMO]	–	–	level of exon-7 inclusion activity (full length SMN2/HPRT1, normalised to untreated control set to 1) (SMN2; 0.5 μM): 1.81±0.02; level of exon-7 inclusion activity (full length SMN2/HPRT1, normalised to untreated control set to 1) (SMN2; 1 μM): 2.0±0.05
Ac-VQRKRQKLMP-X-LRKLRKRLLR-X-C-PMO [NLS-ApoE(141-150)-PMO]	–	significant increase in the activity	–
Ac-WEAALAEALAEALAEHLAEALAEALEALAA-X-C-PMO (Ac-WEAALAEALAEALAEHLAEALAEALEALAA[Ahx]C-{PMO}; reading uncertain; also: printed as Ac-WEAALAEALAEALAEHLAEALAEALEALAA-X-C-PMO) [GALA-PMO]	–	no significant increase	–
Ac-WEAALAEALAEALAEHLAEALAEALEALAA-X-LRKLRKRLLR-X-C-PMO [GALA-ApoE(141-150)-PMO]	–	significant increase in the activity	level of exon-7 inclusion activity (full length SMN2/HPRT1, normalised to untreated control set to 1) (SMN2; 0.5 μM): 1.41±0.04; level of exon-7 inclusion activity (full length SMN2/HPRT1, normalised to untreated control set to 1) (SMN2; 1 μM): 2.14±0.14
Myr-LRKLRKRLLR-X-C-PMO [Myr-ApoE(141-150)-PMO]	–	–	exon-7 inclusion activity (full length SMN2/HPRT1, normalised to untreated control set to 1) (SMN2; concentration not given, compared to acetylated counterpart): 1.91±0.03
